Measurements: US20050130989A1, “N-arylheteroaromatic products compositions containing them and use thereof” (Aventis Pharma S. A., priority 2003, published 2005)
Where a name gives a salt, the structure may show the parent alone.

Assays:
tubulin = molecular target: T1, tubulin (Sus scrofa, UniProt P02550+P02554); assay: Evaluation of the inhibition of tubulin polymerization (turbidimetry); format: biochemical, pig; settings: tubulin 10 μm (1 mg/ml), 37° C., turbidity at 350 nm; concentration that inhibits the rate of polymerization by 50%; read-out: Inhibition of tubulin polymerization IC 50 (μm)
T1 construct: Tubulin is purified from pig brain according to published methods; from tissue; host or cells: pig brain
T1 sequence (P02550 whole entry): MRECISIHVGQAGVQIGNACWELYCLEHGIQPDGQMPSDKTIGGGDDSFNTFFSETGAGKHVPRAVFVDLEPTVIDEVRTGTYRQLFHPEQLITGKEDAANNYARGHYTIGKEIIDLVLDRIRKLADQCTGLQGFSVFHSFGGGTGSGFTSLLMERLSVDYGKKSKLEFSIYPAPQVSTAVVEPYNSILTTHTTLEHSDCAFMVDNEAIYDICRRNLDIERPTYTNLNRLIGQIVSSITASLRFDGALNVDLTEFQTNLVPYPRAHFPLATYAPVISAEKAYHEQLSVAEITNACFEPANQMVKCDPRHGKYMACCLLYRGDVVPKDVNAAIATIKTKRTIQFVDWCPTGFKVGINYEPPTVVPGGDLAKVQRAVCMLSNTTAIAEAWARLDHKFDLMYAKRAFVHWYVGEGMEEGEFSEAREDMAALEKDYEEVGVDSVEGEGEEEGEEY
T1 sequence (P02554 whole entry): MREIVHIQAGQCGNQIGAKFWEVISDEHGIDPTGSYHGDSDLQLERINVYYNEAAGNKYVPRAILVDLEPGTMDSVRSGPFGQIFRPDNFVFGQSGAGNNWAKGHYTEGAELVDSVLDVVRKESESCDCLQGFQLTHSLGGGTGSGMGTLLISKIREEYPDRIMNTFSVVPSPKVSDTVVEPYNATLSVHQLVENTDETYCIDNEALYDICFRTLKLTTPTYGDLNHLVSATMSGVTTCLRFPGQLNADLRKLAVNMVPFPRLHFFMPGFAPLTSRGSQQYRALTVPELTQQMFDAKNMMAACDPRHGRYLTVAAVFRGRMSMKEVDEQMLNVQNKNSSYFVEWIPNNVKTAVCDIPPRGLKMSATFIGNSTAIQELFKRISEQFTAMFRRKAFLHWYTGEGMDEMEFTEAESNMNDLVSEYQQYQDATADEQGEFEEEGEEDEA
In short: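 Pig brain tubulin (>95% pure), 10 μm in MES pH 6.8/30% glycerol buffer plus 1 mM GTP and 6 mM MgCl2, with compound at 0.5–10 μm added before polymerization. Polymerization triggered by shift from 6° C to 37° C, followed by turbidity at 350 nm; IC50 is 50% inhibition of polymerization rate.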

HCT116 cells = assay: Inhibition of proliferation of the human colon tumor line HCT116 ([14C]-thymidine incorporation); format: cell-based; settings: Homo sapiens, HCT-116, 48 h, 48 hours at 37° C., read-out: Inhibition of HCT116 proliferation IC 50 (μm)
In short: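 HCT116 cells (5000/well) in DMEM with 10% fetal calf serum incubated 48 h at 37° C with [14C]-thymidine (0.1 μCi/well) and compound up to 10 μm (DMSO ≤0.5%). Incorporated radioactivity counted; IC50 is concentration cutting radioactivity by 50% versus untreated control.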

Row | SMILES | IC50 (tubulin) | IC50 (HCT116 cells) | melting point
1 | Cc1cc(C(=O)N2CCN(c3cnccn3)CC2)n(-c2ccccc2)n1 [Example E19, (5-Methyl-2-phenyl-2H-pyrazol-3-yl)(2,3,5,6-tetrahydro-[1,2′]bipyrazinyl-4-yl)-methanone] | 6000 nM | 40 nM | 129 °C
2 | O=C(c1cccn1-c1ccccc1)N1CCN(c2cccc(Cl)c2)CC1 [Example 6, [4-(3-Chlorophenyl)piperazin-1-yl](1-phenyl-1H-pyrrol-2-yl)methanone] | 1200 nM | 38.2 nM | 105 °C
3 | Cc1cc(C(=O)N2CCN(c3cccc(C#N)c3)CC2)n(-c2ccccc2)n1 [Example E10, [4-(3-Cyanophenyl)piperazin-1-yl](5-methyl-2-phenyl-2H-pyrazol-3-yl)-methanone] | 900 nM | 4.9 nM | 136 °C
4 | Cc1cc(C(=O)N2CCN(c3cc(F)c(F)c(F)c3)CC2)n(-c2ccccc2)n1 [Example E111, (5-Methyl-2-phenyl-2H-pyrazol-3-yl)[4-(3,4,5-trifluorophenyl)piperazin-1-yl]methanone] | 2330 nM | – | 204 °C
5 | O=C(c1cc(C(F)(F)F)nn1-c1ccccc1)N1CCN(c2cccc(Cl)c2)CC1 [Example E118, [4-(3-Chlorophenyl)piperazin-1-yl](2-phenyl-5-trifluoromethyl-2H-pyrazol-3-yl)-methanone] | 2300 nM | 403 nM | 160 °C
6 | COc1cc(OC)cc(N2CCN(C(=O)c3cc(C(F)(F)F)nn3-c3ccccc3)CC2)c1 [Example E117, [4-(3,5-Dimethoxyphenyl)piperazin-1-yl](2-phenyl-5-trifluoromethyl-2H-pyrazol-3-yl)methanone] | 7900 nM | 28.4 nM | 84 °C
7 | Cc1cc(C(=O)N2CC=C(c3ccccc3)CC2)n(-c2ccccc2)n1 [Example 4, (4-Phenyl-1,2,3,6-tetrahydropyridin-1-yl)(5-methyl-2-phenyl-2H-pyrazol-3-yl)-methanone] | 3000 nM | 58.8 nM | 68 °C
8 | CC(=O)c1cccc(N2CCN(C(=O)c3cc(C)nn3-c3ccccc3)CC2)c1 [Example E107, 1-{3-[4-(5-Methyl-2-phenyl-2H-pyrazole-3-carbonyl)piperazin-1-yl]phenyl}ethanone] | 1400 nM | 10.4 nM | 134 °C
9 | CNC(=O)c1cccc(N2CCN(C(=O)c3cc(C)nn3-c3ccccc3)CC2)c1 [Example E116, N-Methyl-3-[4-(5-methyl-2-phenyl-2H-pyrazole-3-carbonyl)piperazin-1-yl]-benzamide] | 2070 nM | 11.3 nM | 180 °C
10 | COc1cc(OC)cc(N2CCN(C(=O)c3cc(C(C)C)nn3-c3ccccc3)CC2)c1 [Example E71, [4-(3,5-Dimethoxyphenyl)piperazin-1-yl](5-isopropyl-2-phenyl-2H-pyrazol-3-yl)methanone] | 3740 nM | 200 nM | 116 °C
11 | Cc1cc(C(=O)N2CCN(c3cncc4ccccc34)CC2)n(-c2ccccc2)n1 [Example E41] | 4500 nM | 89.4 nM | 166 °C
12 | COc1cc(OC)cc(N2CCN(C(=O)c3cc(C)nn3-c3cccnc3)CC2)c1 [Example E53, [4-(3,5-Dimethoxyphenyl)piperazin-1-yl][5-methyl-2-(pyrid-3-yl)-2H-pyrazol-3-yl]methanone] | 620 nM | 11.1 nM | 60 °C
13 | Cc1cc(C(=O)N2CCN(c3cccc(C(=O)OC(C)(C)C)c3)CC2)n(-c2ccccc2)n1 [Example E27, tert-butyl 3-[4-(5-methyl-2-phenyl-2H-pyrazole-3-carbonyl)piperazin-1-yl]benzoate] | 22500 nM | – | 144 °C
14 | Cc1cc(C(=O)N2CCN(c3ccccc3[N+](=O)[O-])CC2)n(-c2ccccc2)n1 [Example E62, (5-Methyl-2-phenyl-2H-pyrazol-3-yl)[4-(2-nitrophenyl)piperazin-1-yl]methanone] | 13500 nM | – | 127 °C
15 | NC(=O)c1cccc(N2CCN(C(=O)c3cc(C(F)(F)F)nn3-c3ccccc3)CC2)c1 [Example E119, 3-[4-(2-Phenyl-5-trifluoromethyl-2H-pyrazole-3-carbonyl)piperazin-1-yl]benzamide] | 1200 nM | 10.3 nM | 160 °C
16 | Cc1cc(C(=O)N2CCN(c3cccc(OC(F)(F)F)c3)CC2)n(-c2ccccc2)n1 [Example E11, [4-(3-Trifluoromethyloxyphenyl)piperazin-1-yl](5-methyl-2-phenyl-2H-pyrazol-3-yl)methanone] | 1000 nM | 12 nM | 107 °C
17 | Cc1cc(C(=O)N2CCN(c3cccc(C(N)=O)c3)CC2)n(-c2ccccc2)n1 [Example E23, 3-[4-(5-Methyl-2-phenyl-2H-pyrazole-3-carbonyl)piperazin-1-yl]benzamide] | 320 nM | 10 nM | 186 °C
18 | Cc1cc(C(=O)N2CCN(c3nccc4ccccc34)CC2)n(-c2ccccc2)n1.Cl [Example E15, [4-(Isoquinolin-1-yl)piperazin-1-yl](5-methyl-2-phenyl-2H-pyrazol-3-yl)-methanone hydrochloride] | 14000 nM | 239 nM | 128 °C
19 | Cc1cc(C(=O)N2CCN(c3cccc(Br)c3)CC2)n(-c2ccccc2)n1 [Example E6, [4-(3-Bromophenyl)piperazin-1-yl](5-methyl-2-phenyl-2H-pyrazol-3-yl)methanone] | 900 nM | 1.2 nM | 138 °C
20 | Cc1cc(C(=O)N2CCN(c3cccc(N)c3)CC2)n(-c2ccccc2)n1 [Example E9, [4-(3-Aminophenyl)piperazin-1-yl](5-methyl-2-phenyl-2H-pyrazol-3-yl)methanone] | 3000 nM | 53.1 nM | 158 °C
21 | Cc1cc(C(=O)N2CCN(c3cccnc3)CC2)n(-c2cccc(F)c2)n1 [Example E58, [2-(3-Fluorophenyl)-5-methyl-2H-pyrazol-3-yl](4-pyrid-3-ylpiperazin-1-yl)methanone] | 1000 nM | 41.1 nM | 132 °C
22 | NC(=O)c1cccc(N2CCN(C(=O)c3cc(CO)nn3-c3ccccc3)CC2)c1 [Example E134, 3-[4-(5-Hydroxymethyl-2-phenyl-2H-pyrazole-3-carbonyl)piperazin-1-yl]benzamide] | 3200 nM | – | 216 °C
23 | Cc1cc(C(=O)N2CCN(c3cccc(Cl)c3)CC2)n(-c2cccnc2)n1 [Example E52, [4-(3-Chlorophenyl)piperazin-1-yl][5-methyl-2-(pyrid-3-yl)-2H-pyrazol-3-yl]methanone] | 1410 nM | 10.2 nM | 124 °C
24 | O=C(c1cccn1-c1ccccc1)N1CCN(c2cccnc2)CC1 (as salt: hydrochloride) [Example E46, (1-Phenyl-1H-pyrrol-2-yl)[4-(pyrid-3-yl)piperazin-1-yl]methanone hydrochloride] | – | – | 180 °C
25 | Cc1cc(C(=O)N2CCN(c3ccc4c(c3)OCO4)CC2)n(-c2ccccc2)n1 [Example E12, [4-(1,3-Benzodioxol-5-yl)piperazin-1-yl](5-methyl-2-phenyl-2H-pyrazol-3-yl)-methanone] | 2300 nM | 3.1 nM | 128 °C
26 | Cc1cc(C)cc(N2CCN(C(=O)c3cc(C)nn3-c3ccccc3)CC2)c1 [Example E63, [4-(3,5-Dimethylphenyl)piperazin-1-yl](5-methyl-2-phenyl-2H-pyrazol-3-yl)methanone] | 600 nM | 2.2 nM | 109 °C
27 | Cc1cc(C(=O)N2CCN(c3cc(Cl)ccc3C)CC2)n(-c2ccccc2)n1 [3/33] | 3000 nM | 170 nM | –
28 | COc1cccc(N2CCN(C(=O)c3cc(C)nn3-c3cccc(C)c3)CC2)c1 [3/49] | 1000 nM | 7.9 nM | –
